Consider five molecules from US8153593B2, “Transglutaminase inhibitors and methods of use thereof” (The Board of Trustees of the Leland Stanford Junior …, priority 2003, dated 2012).

*1 amine or outer side, *2 acyl side, *3 side chain or, on linkers, in order; H or OH if unused. Where a SMILES comes first, the peptide text is derived from it. [ ]: non-standard residue; d: D form. X2 = [N-]=[N+]=CC(=O)CC[C@@H](N[*:1])C(=O)[*:2]; DON = [N-]=[N+]=CC(=O)CC[C@H](N)C(=O)O

The target in test [1] is T1, human TG2 (Homo sapiens, UniProt P21980).
T1 sequence (P21980 1-687): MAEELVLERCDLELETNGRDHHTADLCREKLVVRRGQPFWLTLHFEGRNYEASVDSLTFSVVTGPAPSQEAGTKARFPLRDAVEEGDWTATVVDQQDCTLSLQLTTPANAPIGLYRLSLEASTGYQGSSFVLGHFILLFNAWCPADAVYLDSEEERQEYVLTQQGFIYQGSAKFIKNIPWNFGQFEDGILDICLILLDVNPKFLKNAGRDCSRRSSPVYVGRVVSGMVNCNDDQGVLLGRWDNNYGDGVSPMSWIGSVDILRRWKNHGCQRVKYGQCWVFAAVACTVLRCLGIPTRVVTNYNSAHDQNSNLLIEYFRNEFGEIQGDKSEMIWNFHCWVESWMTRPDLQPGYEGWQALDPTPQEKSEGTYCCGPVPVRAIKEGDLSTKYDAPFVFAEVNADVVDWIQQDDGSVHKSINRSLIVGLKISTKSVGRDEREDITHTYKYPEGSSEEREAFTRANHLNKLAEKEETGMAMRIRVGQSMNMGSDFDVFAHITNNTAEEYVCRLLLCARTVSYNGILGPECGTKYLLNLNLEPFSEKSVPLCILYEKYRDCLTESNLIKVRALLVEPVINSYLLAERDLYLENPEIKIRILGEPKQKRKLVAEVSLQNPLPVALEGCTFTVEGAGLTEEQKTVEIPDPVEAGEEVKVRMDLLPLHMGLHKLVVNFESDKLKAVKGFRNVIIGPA
Kind of test: TG2 inhibition kinetics by the method of Hausch et al. The test is classed as biochemical. On the set-up: ki/KI: unit not given here. The text has this: Earlier disclosures had reported the synthesis and evaluation of a promising peptidic inhibitor of human TG2, (SEQ ID NO:1) Ac-Pro-Gln-Pro-DON-Leu-Pro-Phe-NH2. We now disclose a truncated analog that is easier to synthesize and has greater activity.
Characterization: (SEQ ID NO:3) Ac-Pro-DON-Leu-Pro-Phe-NH2 was characterized by the method of Hausch et al. (Hausch et al., Chem. Biol. (2003) 10, 225-231).

A further test deals with T2, tumor associated TG2 (Mus musculus, UniProt P21981).
T2 construct: from tissue; host or cells: intracranial DBT glioblastoma tumours from dosed mice
T2 sequence (P21981 1-686): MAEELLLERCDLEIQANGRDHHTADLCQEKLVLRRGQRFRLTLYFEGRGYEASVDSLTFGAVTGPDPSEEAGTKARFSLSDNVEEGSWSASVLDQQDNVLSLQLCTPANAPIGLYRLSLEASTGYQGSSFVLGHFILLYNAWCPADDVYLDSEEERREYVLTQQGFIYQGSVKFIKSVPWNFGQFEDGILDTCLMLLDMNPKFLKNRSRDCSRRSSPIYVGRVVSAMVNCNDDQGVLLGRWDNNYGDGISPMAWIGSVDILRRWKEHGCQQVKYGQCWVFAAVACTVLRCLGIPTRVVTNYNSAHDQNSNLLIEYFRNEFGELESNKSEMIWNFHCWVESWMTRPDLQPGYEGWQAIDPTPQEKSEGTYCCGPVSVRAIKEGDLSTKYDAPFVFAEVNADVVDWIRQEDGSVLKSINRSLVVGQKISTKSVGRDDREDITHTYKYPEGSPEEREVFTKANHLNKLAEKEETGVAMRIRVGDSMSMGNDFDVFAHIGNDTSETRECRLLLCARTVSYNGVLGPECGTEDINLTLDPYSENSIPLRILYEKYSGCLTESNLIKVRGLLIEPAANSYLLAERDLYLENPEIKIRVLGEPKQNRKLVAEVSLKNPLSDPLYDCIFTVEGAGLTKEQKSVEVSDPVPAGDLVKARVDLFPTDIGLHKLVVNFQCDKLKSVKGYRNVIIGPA
Kind of test: Intracranial DBT tumor associated TG2 activity after dosing. It is filed as in vivo, mice. How it is done:
To test whether therapeutic doses of KCC009 can modulate TG2 activity associated with intracranial glioblastomas, DBT tumors were injected intracranially in mice. As judged by MRI, the mice consistently established intracranial tumors after 7-10 days following injections, which, if untreated, caused death by 2-3 weeks. In an initial dose-finding experiment, cohorts of mice were administered 4 daily doses of vehicle or KCC009 (12.5 mg/kg, 25 mg/kg and 50 mg/kg) starting on day 11 after intra-cranial injections. Twenty-four hours later, the mice were sacrificed and tumors analyzed. […] Based on these findings a dose of 35 mg/kg was used for subsequent experiments in mice harboring intracranial DBT tumors.
As summarized in Table 4, KCC009 treatment led to significant suppression of TG2 activity after 15 min, whereas enzyme activity recovers fully by 24 h. Both uninhibited and inhibited activity levels are consistent with similar measurements in the small intestinal mucosa (data not shown).

Test [2] addresses T3, bovine epidermal transglutaminase (Bos taurus, UniProt A6QP57).
T3 sequence (A6QP57 1-691): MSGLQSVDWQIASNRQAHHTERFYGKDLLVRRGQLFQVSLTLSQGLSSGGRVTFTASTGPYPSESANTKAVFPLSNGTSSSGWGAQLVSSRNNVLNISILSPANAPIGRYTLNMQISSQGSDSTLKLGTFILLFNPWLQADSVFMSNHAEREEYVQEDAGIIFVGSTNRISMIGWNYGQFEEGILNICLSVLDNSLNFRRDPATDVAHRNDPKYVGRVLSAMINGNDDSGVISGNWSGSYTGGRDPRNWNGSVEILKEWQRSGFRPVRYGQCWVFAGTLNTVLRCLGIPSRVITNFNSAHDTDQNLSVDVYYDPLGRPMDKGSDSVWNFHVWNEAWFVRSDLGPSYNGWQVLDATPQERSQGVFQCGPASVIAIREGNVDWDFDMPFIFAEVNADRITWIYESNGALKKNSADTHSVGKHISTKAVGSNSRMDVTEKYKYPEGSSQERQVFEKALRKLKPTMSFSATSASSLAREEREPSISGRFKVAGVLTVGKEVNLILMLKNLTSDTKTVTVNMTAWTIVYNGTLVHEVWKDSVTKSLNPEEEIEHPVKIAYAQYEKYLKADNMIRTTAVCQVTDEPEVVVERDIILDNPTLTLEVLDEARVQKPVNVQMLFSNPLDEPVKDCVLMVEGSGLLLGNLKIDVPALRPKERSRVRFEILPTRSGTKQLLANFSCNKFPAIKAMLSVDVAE
The note with it: cited from earlier work.

For test [3], the target named is T4, recombinant human tissue transglutaminase (Homo sapiens, UniProt P21980).
T4 construct: made in house
T4 sequence (P21980 1-687): T1 sequence (P21980 1-687)
The experiment in a line: tTGase inhibition assay, residual activity by glutamate dehydrogenase coupled assay. It is filed as biochemical. The note with it: dihydroisoxazoles, Table 1.

The target of test [4] is T1, human TG2. Conditions: cited from earlier work.
The target in test [5] is T5, human TG2 (tissue transglutaminase, transglutaminase 2) (human, UniProt P21980 1-687, limits assumed).
T5 construct: also called tTGase; tTG
T5 sequence (looked up): T1 sequence (P21980 1-687)
Kind of test: TG2 enzyme inactivation kinetics by the method of Hausch et al.

On human TG2 [1], `CC(=O)N1CCC[C@H]1C(=O)N[C@H](CCC(=O)C=[N+]=[N-])C(=O)N[C@@H](CC(C)C)C(=O)N1CCC[C@H]1C(=O)N[C@@H](Cc1ccccc1)C(N)=O` [Ac-Pro-DON-Leu-Pro-Phe-NH2] (Ac-P[X2]LPF-NH2) registered a ki of 0.5 min⁻¹ and a ki/KI of 8.3.

Turning to `O=NN(CCCl)C(=O)NCCCl` [BCNU, reference compound], the results for the “TG2 activity-BCNU alone” value on tumor associated TG2 (15 min after last of four daily doses) and on tumor associated TG2 (24 h after last of four daily doses) were 2.1 ± 0.2 (n = 4) nmol/h/mg protein and 2.2 ± 0.3 (n = 2) nmol/h/mg protein, respectively.

In the case of `O=C(N[C@@H](Cc1ccccc1)C(=O)NCC1CC(Br)=NO1)OCc1ccccc1` (stereo partly drawn) [Compound 49, {(S)-1-[(3-Bromo-4,5-dihydro-isoxazol-5-ylmethyl)-carbamoyl]-2-phenyl-ethyl}-carbamic acid benzyl ester], the “inhibition of bovine epidermal transglutaminase” value in test [2] was “is an inhibitor”. In test [3], the kinh amounted to 1.4 min⁻¹.

With `CC(=O)CSc1n(C)c(C)c(C)[n+]1C.[Cl-]` [L682777], at human TG2 [4], the “inhibition of human TG2” value is on record as “inhibits human TG2”.

B1: Ac-Pro-DON-Leu-Pro-Phe-NH2 (DON=6-diazo-5-oxo-norleucine) (peptide)
peptide: Ac-P[DON]LPF-NH2
SMILES: CC(=O)N1CCC[C@H]1C(=O)N[C@@H](CCC(=O)C=[N+]=[N-])C(=O)N[C@@H](CC(C)C)C(=O)N1CCC[C@H]1C(=O)N[C@@H](Cc1ccccc1)C(N)=O
notes: Position 2 is the non-natural residue DON; also called truncated analog of Ac-Pro-Gln-Pro-DON-Leu-Pro-Phe-NH2
As for B1, in test [5], the Ki was 60 nM and the “ki (inactivation rate constant)” value came to 0.5 min⁻¹.
